Reference: patent publication US20100168146A1, “Composition Comprising (R)-Spiro[L-Azabicyclo[2.2.2]Octane-3,2'(3'H)-Furo[2,3-B]Pyridine (AZD0328) and its Use in the Treatment of Alzheimer's Disease, ADHD or Cognitive Dysfunction” (priority 2008, published 2010)

Legend:
[1] = Single oral dose PK in healthy human volunteers (Table A); assay type: in vivo
Description: Total oral doses of AZD0328 in the range 0.025-0.68 mg produced mean plasma concentrations of 0.6-15 nM, consistent with the range of plasma concentrations found to be associated with improved performance in the spatial delayed response test in monkeys. Total oral doses of AZD0328 in the range 0.005-2 mg produced mean plasma concentrations of 0.17-43.9 nM, within the range of plasma concentrations found to be associated with improved performance in rodent models.

[2] = system: fimbria formix transected rats; assay: Fimbria formix transected rat model (DNMTP, DRL, LTP); assay type: in vivo
Description: Previously, AZD0328 has been described, for example in U.S. Pat. No. 6,110,914 and counterpart worldwide patents, as an α7 agonist. In a widely used model of cognitive dysfunction using fimbria formix transected rats challenged to perform Delayed Non-Match to Position or Differential Reinforcement of Low Rates of Responding tasks, agonistic doses of 1 mg per kg and higher of AZD0328 effectively compensated for the acetylcholine deficiencies of these animals. These doses were associated with plasma concentrations at which AZD0328 acts as an agonist at α7 receptors in vitro. However, lower concentrations were ineffective in these model systems.
The potency of AZD0328 to activate α7 receptors in these in vitro preparations was in the micromolar range. […] For example, 1 or 3 mg/kg of AZD0328 reversed deficits in hippocampal long-term potentiation or response accuracy in two different cognitive tests in fimbria-formix lesioned animals (delayed non-match to position and differential reinforcement of low rates of responding). The minimum effective dose of 1 mg per kg necessary to reverse deficits in the rat fimbria formix model produced plasma concentrations in the range 0.29-1.4 μM in the rat, consistent with the range of concentrations required to activate α7 responses in vitro.

[3] = system: isolated perfused female rabbit hearts; assay: Isolated perfused rabbit heart (Hondeghem model)
Source text: Proarrhythmic properties of AZD0328 were investigated in 6 isolated perfused female rabbit hearts according to the Hondeghem model (Table 3). Effects of AZD0328 on action potential duration at 60% of repolarisation (APD60), and Triangulation, Reverse-use dependence and Instability (T, R, I) of the action potential, were studied. Also, a “flag” was raised when T, R or I reached a critical threshold level, below which is considered safe, and the total number of flags was presented as increase in percentage flags. The % flags parameter is considered to be the most sensitive measure of proarrhythmia in this in vitro model, with a threshold for cause of concern at 2.5%. The % flags increased concentration-dependently above threshold at 9 and 30 μM. Although TRIad elements were present, there were no overt signs of proarrhythmia such as early-afterdepolarisations (EADs), Torsade de Pointes, or ventricular fibrillation. In this study the no adverse effect level (NOAEL) of AZD0328 for proarrhythmic signals was 3 μm.

rats [4] = assay: Modified Irwin screen; assay type: in vivo; settings: Wistar rat, oral gavage, up to 4 h postdose
Description: The effects of AZD0328 were assessed in the modified Irwin screen, a behavioural, neurological and overt toxicity scoring protocol battery designed to detect a wide range of side effects (Table 3). The findings in the Irwin screen serve as a gross indication of CNS-mediated effects.

marmoset monkeys = assay: Behavioral effects / tolerability; assay type: in vivo; settings: im, first five minutes after administration
Description: Prior to testing its effects on cognitive task performance in marmoset monkeys, the tolerability of AZD0328 was assessed. (Table 3). Behaviours noted in individual marmosets during the five minutes immediately following drug administration were salivation, vomiting, scratching, defecation and increased activity.

[5] = Cardiovascular/respiratory telemetry and whole body plethysmography; assay type: in vivo, rat; settings: plasma; rat, oral, whole-body plethysmography; read-out: NOAEL on ventilatory function / respiration, total Cmax
Description: (§1) Effects of single oral doses of AZD0328 on mean, systolic and diastolic arterial blood pressures, heart rate, body temperature, locomotor activity and respiratory parameters were evaluated in rats by combining whole body plethysmography with telemetry (Table 3). […] The degree of hypertension, however, was similar at the 3 highest doses, which partly can be explained by the high individual variation in plasma exposure at each dose level. The effect on heart rate was, on the other hand, dose-related.
(§2) Effects of AZD0328 on respiratory function were evaluated in the combined cardiovascular/respiratory study in rats (Table 3). Respiratory rate, tidal volume, inspiratory and expiratory times, and peak inspiratory and expiratory flows were measured […].

rats [6] = assay: as above; assay type: in vivo, rat
Description: as §1, §2

ferrets = assay: Emetic potential; assay type: in vivo; settings: ferret
Description: The emetic potential of AZD0328 was investigated in ferrets (n=6-8/dose) following a single oral dose of vehicle or AZD0328 (Table 3). Videotape recordings were used for observation of the animals up to 4 h after dose for quantitation and timing of emetic behaviours, characterised as retches (abdominal contractions), vomits and wet-dog shakes.

[7] = Predicted human PK / exposure (allometric scaling of rat and monkey data)
Description: The 50% bioavailability of AZD0328 in human was conservatively selected based on the observations from rat, dog and monkey.
Given the findings in the 1 month repeated dose toxicology studies in the rats, it is reasonable to set human systemic exposure limits following single dose administration equal to the exposure observed at NOAEL for renal tubule vacuolation. The corresponding human equivalent dose, based on the FDA guidance (via allometric scaling of body surface area) is, 0.35 mg/kg. A dose of 0.03 mg/day is proposed as a starting dose.

dogs = assay: Maximum tolerated dose and 7 days oral toxicity; assay type: in vivo; settings: dog
Description: Single doses of 4.5 to 17 mg/kg were administrated to test AZD0328 to 2 male and 2 female dogs. […] Signs of nausea and at the higher doses vomiting was seen. In the 7 days repeated dose study 2 male and 2 female dogs were given 35 mg/kg per day. However, vomiting was the major clinical sign recorded during the study.

[8] = single oral 0.025 mg, geometric mean
[9] = single oral 0.075 mg, geometric mean
[10] = single oral 0.23 mg, geometric mean
[11] = single oral 0.68 mg, geometric mean
[12] = single oral 1.35 mg, geometric mean
[13] = single oral 2 mg, geometric mean

With `c1cnc2c(c1)C[C@@]1(CN3CCC1CC3)O2` [AZD0328, (R)-Spiro[1-azabicyclo[2.2.2]octane-3,2′(3′H)-furo[2,3-b]pyridine]] as the compound, how does the Cmax/Dose ([1]; single oral 0.005 mg, geometric mean (% CV)) read?
The Cmax/Dose was 0.007 (24).

What about the AUC/Dose [1, 8] of the same compound?
The AUC/Dose was 0.053.

What about the CL/F [1, 8] of the same compound?
Its CL/F is 19.0 L/h.

What about the Cmax/Dose [1, 8] of the same compound?
Its Cmax/Dose is 0.006.

And the AUC/Dose [1, 9]?
The AUC/Dose was 0.049.

What about the Cmax/Dose [1, 9] of the same compound?
The Cmax/Dose was 0.006.

What about the AUC/Dose [1, 10] of the same compound?
The AUC/Dose was 0.061.

What about the Cmax/Dose [1, 10] of the same compound?
Its Cmax/Dose is 0.006.

What about the t1/2 [1, 10] of the same compound?
Its t1/2 is 6.7 h.

And the AUC/Dose [1, 11]?
The AUC/Dose was 0.046.

And the Cmax/Dose [1, 11]?
The Cmax/Dose was 0.005.

And the t1/2 [1, 11]?
Its t1/2 is 6.0 h.

And the AUC/Dose [1, 12]?
The AUC/Dose was 0.054.

And the Cmax/Dose [1, 12]?
Its Cmax/Dose is 0.005.

What about the AUC/Dose [1, 13] of the same compound?
The AUC/Dose was 0.046.

And the CL/F [1, 13]?
Its CL/F is 22.0 L/h.

What about the Cmax/Dose [1, 13] of the same compound?
The Cmax/Dose was 0.005.

And the Minimum effective dose [2]?
Its Minimum effective dose is 1 mg per kg.

And the “NOAEL in the proarrhythmic isolated heart assay” value [3]?
Its value is 0.9 µM.

What about the “NOAEL for proarrhythmic signals” value ([3]; isolated perfused rabbit heart) of the same compound?
Its value is 3 μm.

What about the Dose with sedation (rats [4]) of the same compound?
Its Dose with sedation is 129.8 mg/kg up to 4 h postdose.

What about the “Doses with salivation, vomiting, scratching, defecation and increased activity” value (marmoset monkeys) of the same compound?
The value was “administration with 0.03-3 mg/kg”.

And the Cmax [5]?
Its Cmax is ≤ 31.2 µM.

What about the “Dose with no CV effect” value (rats [6]; Wistar rat, oral gavage) of the same compound?
Its value is 1.1 mg/kg.

And the “Increase in blood pressure and heart rate” value (rats [6]; conscious telemetered rat, oral)?
Its value is > 10%.

What about the “Locomotor activity or body temperature” value (rats [6]; rat, oral, any dose) of the same compound?
The value was “μM. No effect on locomotor”.

What about the HR increase (rats [6]; telemetered Wistar rat, oral gavage, highest dose (total Cmax 31.2 μM)) of the same compound?
The HR increase was 19%.

And the Emetic responses (ferrets; oral gavage 5.6, 16.9 or 56.2 mg/kg)?
The Emetic responses was “retching, vomiting and wet-dog shakes at all doses”.

And the “Dose with statistically significant retches vs vehicle” value (ferrets; single oral dose)?
Its value is 5.6 mg/kg.

What about the “Predicted free human therapeutic plasma level” value [7] of the same compound?
Its value is 0.5 to 1.7 nM.

What about the “Human equivalent dose of the rat NOAEL (allometric scaling of body surface area)” value ([7]; NOAEL for renal tubule vacuolation) of the same compound?
The value was 0.35 mg/kg.

And the “Bioavailability in human, conservatively selected” value ([7]; human)?
Its value is 50%.

And the “Dose with slight QT prolongation (ECG)” value (dogs)?
The value was ≥ 8.6 mg/kg.
